Assay results as given in patent publication US6642216B2, “Isoprenoid pathway inhibitors for stimulating bone growth” (ZymoGenetics Corporation, priority 1996, dated 2003).

Experiments:
[1] = test system: ICR Swiss white mice calvaria; assay: In vivo murine calvarial bone growth assay; design: species or system mouse; conditions: 12.5 μg/kg/day
Method: Male ICR Swiss white mice, aged 4-6 weeks and weighing 13-26 gm, are employed, using 4-5 mice per group. The calvarial bone growth assay is performed as described in PCT application WO 95/24211, incorporated by reference. Briefly, the test compound or appropriate control vehicle is injected into the subcutaneous tissue over the right calvaria of normal mice. Typically, the control vehicle is the vehicle in which the compound was solubilized, and is PBS containing 5% DMSO or is PBS containing Tween (2 μl/10 ml). The animals are sacrificed on day 14 and bone growth measured by histomorphometry. Bone samples for quantitation are cleaned from adjacent tissues and fixed in 10% buffered formalin for 24-48 hours, decalcified in 14% EDTA for 1-3 weeks, processed through graded alcohols; and embedded in paraffin wax. Three to five μm sections of the calvaria are prepared, and representative sections are selected for histomorphometric assessment of the effects on bone formation and bone resorption. Sections are measured by using a camera lucida attachment to trace directly the microscopic image onto a digitizing plate. Bone changes are measured on sections cut 200 μm apart, over 4 adjacent 1×1 mm fields on both the injected and noninjected sides of the calvaria. New bone is identified by its characteristic woven structure, and osteoclasts and osteoblasts are identified by their distinctive morphology. Histomorphometry software (OsteoMeasure, Osteometrix, Inc., Atlanta) is used to process digitizer input to determine cell counts and measure areas or perimeters.
The results are reported as a measurement of total bone area (and % increase in area over vehicle control), as shown below.

neonatal mouse calvaria = assay: Neonatal mouse calvaria assay (in vitro bone formation); type: cell-based; design: Osteoblast Number, % increase over vehicle control / New Bone Area, % increase over vehicle control: concentration or dose not given beside the values; conditions: Experiment 1
Method: Briefly, four days after birth, the front and parietal bones of ICR Swiss white mouse pups are removed by microdissection and split along the sagittal suture.
Three μm sections of the calvaria are prepared. Representative sections are selected for histomorphometric assessment of bone formation or bone resorption. Bone changes are measured on sections cut 200 μm apart. Osteoblasts and osteoclasts are identified by their distinctive morphology.
Selected compounds and appropriate controls were assayed in vitro (ex vivo) for bone formation activity (described above in “Neonatal Mouse Calvaria Assay (in vitro)”). Histomorphometrical assessments of ex vivo calvaria were carried out using an OsteoMetrics bone morphometry measurement program, according to the manufacturer's instructions. Measurements were determined using either a 10- or 20-fold objective with a standard point counting eyepiece graticule.
New bone formation was determined (using a 10× objective) by measuring the new bone area formed in one field in 3 representative sections of each bone (4 bones per group). Each measurement was carried out ½ field distance from the end of the suture. Both total bone and old bone area were measured. Data were expressed as new bone area in mm^2.
Osteoblast numbers were determined by point counting. The number of osteoblast cells lining the bone surface on both sides of the bone were counted in one field using a 20× objective. Data were expressed as osteoblast numbers/mm of bone surface.
The results were calculated as new bone area in mm^2×10^−3, as above.

BMP-2 promoter = assay: ABA assay: BMP-2 promoter-luciferase reporter in 2T3-BMP-2-LUC osteoblast cells; type: cell-based, mouse
Method: These transformed cells are then evaluated for the production of the reporter gene product; compounds that activate the BMP promoter will drive production of the reporter protein, which can be readily assayed.
The cells were cultured using α-MEM, 10% FCS with 1% penicillin/streptomycin and 1% glutamine (“plating medium”), and were split 1:5 once per week. For the assay, the cells were resuspended in a plating medium containing 4% FCS, plated in microtiter plates at a concentration of 5×10^3 cells (in 50 μl)/well, and incubated for 24 hours at 37° C. in 5% CO2. To initiate the assay, 50 μl of the test compound or the control in DMSO was added at 2× concentration to each well, so that the final volume was 100 μl. The final serum concentration was 2% FCS, and the final DMSO concentration was 1%.
The treated cells were incubated for 24 hours at 37° C. and 5% CO2. The medium was then removed, and the cells were rinsed three times with PBS. After removal of excess PBS, 25 μl of 1× cell culture lysing reagent (Promega #E153A) was added to each well and incubated for at least ten minutes. Optionally, the plates/samples could be frozen at this point. To each well was added 50 μl of luciferase substrate (Promega #E152A; 10 ml Promega luciferase assay buffer per 7 mg Promega luciferase assay substrate). Luminescence was measured on an automated 96-well luminometer, and was expressed as either picograms of luciferase activity per well or as picograms of luciferase activity per microgram of protein.
Alternatively, the reactivity of a compound to be tested can be compared directly to a negative control containing no compound.

[2] = test system: serum response element (SRE)-luciferase reporter gene / CRE-luciferase reporter gene; assay: negative control OBSRE (SRE-luciferase) and/or glucagon (CRE-luciferase) assays; type: cell-based, murine
From the text: In the negative control OBSRE assay, a murine osteoblast cell line, such as CCC-4 expressing a serum response element (SRE)-luciferase reporter gene is used (see WO96/07733). In the negative control glucagon assay, a glucagon receptor-positive BHK cell expressing a CRE-luciferase reporter gene is used (see U.S. Pat. No. 5,698,672).

murine calvariae = conditions: reports by R. G. G. Russell and colleagues; cited from earlier work
[3] = Experiment 2, 0.097656 μM, 0.038085 μg/ml
[4] = Experiment 2, 0.195312 μM, 0.076171 μg/ml
[5] = Experiment 2, 0.390625 μM, 0.152343 μg/ml
[6] = Experiment 2, 0.78125 μM, 0.304687 μg/ml
[7] = Experiment 2, 1.5625 μM, 0.609375 μg/ml
[8] = Experiment 2, 3.125 μM, 1.21875 μg/ml
[9] = Experiment 2, 6.25 μM, 2.4375 μg/ml
[10] = Experiment 2, 12.5 μM, 4.875 μg/ml
[11] = Experiment 2, 25 μM, 9.75 μg/ml
[12] = Experiment 2, 50 μM, 19.5 μg/ml

With “bFGF: control factor, "gold standard" agent for bone growth” the “% increase in total bone area over vehicle control” value [1] was 45%, the “Total Bone Area” value [1] was 242 μm^2 and the “New Bone Area” value (neonatal mouse calvaria; 3 days) was 5.7 mm^2 × 10^−3. For the same compound, the “New Bone Area, % increase over vehicle control” value (neonatal mouse calvaria; 3 days) was 19%, the “Osteoblast Number” value (neonatal mouse calvaria; 3 days) was 179.25 Obs/field and the “Osteoblast Number, % increase over vehicle control” value (neonatal mouse calvaria; 3 days) was 84%. The “New Bone Area” value (neonatal mouse calvaria; 7 days) was 18.1 mm^2 × 10^−3, the “New Bone Area, % increase over vehicle control” value (neonatal mouse calvaria; 7 days) was 132% and the “Osteoblast Number” value (neonatal mouse calvaria; 7 days) was 168.7 Obs/field. The “Osteoblast Number, % increase over vehicle control” value (neonatal mouse calvaria; 7 days) was 82%.
With CCC(C)(C)C(=O)O[C@H]1C[C@@H](C)C=C2C=C[C@H](C)[C@H](CC[C@@H](O)C[C@@H](O)CC(=O)O)[C@H]21 [Hydrolyzed simvastatin, hydrolyzed simvastatin] the “dose-dependent stimulatory effect in the ABA assay” value (BMP-2 promoter) was “dose-dependent stimulatory effect”, the “% 59-0008 Response” value (BMP-2 promoter; Experiment 1, 0.195312 μg/ml) was −0.680% and the “Fold increase over negative control” value (BMP-2 promoter; Experiment 1, 0.195312 μg/ml) was 0.9 fold. For the same compound, the “% 59-0008 Response” value (BMP-2 promoter; Experiment 1, 0.390625 μg/ml) was 1.520%, the “Fold increase over negative control” value (BMP-2 promoter; Experiment 1, 0.390625 μg/ml) was 1.1 fold and the “% 59-0008 Response” value (BMP-2 promoter; Experiment 1, 0.78125 μg/ml) was 10.430%. The “Fold increase over negative control” value (BMP-2 promoter; Experiment 1, 0.78125 μg/ml) was 1.6 fold, the “% 59-0008 Response” value (BMP-2 promoter; Experiment 1, 1.5625 μg/ml) was 36.190% and the “Fold increase over negative control” value (BMP-2 promoter; Experiment 1, 1.5625 μg/ml) was 3.4 fold. For the same compound, the “% 59-0008 Response” value (BMP-2 promoter; Experiment 1, 3.125 μg/ml) was 75.860%, the “Fold increase over negative control” value (BMP-2 promoter; Experiment 1, 3.125 μg/ml) was 6.0 fold and the “% 59-0008 Response” value (BMP-2 promoter; Experiment 1, 6.25 μg/ml) was 150.260%. The “Fold increase over negative control” value (BMP-2 promoter; Experiment 1, 6.25 μg/ml) was 10.9 fold, the “% 59-0008 Response” value (BMP-2 promoter; Experiment 1, 12.5 μg/ml) was 156.230% and the “Fold increase over negative control” value (BMP-2 promoter; Experiment 1, 12.5 μg/ml) was 11.3 fold. The “% 59-0008 Response” value (BMP-2 promoter; Experiment 1, 25 μg/ml) was 200.230%, the “Fold increase over negative control” value (BMP-2 promoter; Experiment 1, 25 μg/ml) was 14.3 fold and the “% 59-0008 Response” value (BMP-2 promoter; Experiment 1, 50 μg/ml) was 44.520%. For the same compound, the “Fold increase over negative control” value (BMP-2 promoter; Experiment 1, 50 μg/ml) was 3.9 fold, the “% 59-0008 Response” value (BMP-2 promoter; Experiment 1, 100 μg/ml) was −15.230% and the “Fold increase over negative control” value (BMP-2 promoter; Experiment 1, 100 μg/ml) was −0.0 fold. For the same compound, the “% 59-0008 Response” value (BMP-2 promoter; Experiment 1, 200 μg/ml) was −15.140%, the “Fold increase over negative control” value (BMP-2 promoter; Experiment 1, 200 μg/ml) was −0.0 fold and the “dose-dependent stimulatory effect in control assays” value [2] was “not in control assays”.
In the case of CC[C@H](C)C(=O)O[C@H]1CCC=C2C=C[C@H](C)[C@H](CC[C@@H]3C[C@@H](O)CC(=O)O3)[C@H]21 [Mevastatin, mevastatin], the “dose-dependent stimulatory effect in the ABA assay” value (BMP-2 promoter) is reported as “dose-dependent stimulatory effect”, the “% 59-0008 Response” value (BMP-2 promoter; Experiment 1, 0.195312 μg/ml) is reported as 25.840% and the “Fold increase over negative control” value (BMP-2 promoter; Experiment 1, 0.195312 μg/ml) is reported as 2.144 fold. For the same compound, the “% 59-0008 Response” value (BMP-2 promoter; Experiment 1, 0.390625 μg/ml) was 15.650%, the “Fold increase over negative control” value (BMP-2 promoter; Experiment 1, 0.390625 μg/ml) was 1.693 fold and the “% 59-0008 Response” value (BMP-2 promoter; Experiment 1, 0.78125 μg/ml) was 34.520%. For the same compound, the “Fold increase over negative control” value (BMP-2 promoter; Experiment 1, 0.78125 μg/ml) was 2.528 fold, the “% 59-0008 Response” value (BMP-2 promoter; Experiment 1, 1.5625 μg/ml) was 47.630% and the “Fold increase over negative control” value (BMP-2 promoter; Experiment 1, 1.5625 μg/ml) was 3.103 fold. The “% 59-0008 Response” value (BMP-2 promoter; Experiment 1, 3.125 μg/ml) was 99.670%, the “Fold increase over negative control” value (BMP-2 promoter; Experiment 1, 3.125 μg/ml) was 5.413 fold and the “% 59-0008 Response” value (BMP-2 promoter; Experiment 1, 6.25 μg/ml) was 140.260%. The “Fold increase over negative control” value (BMP-2 promoter; Experiment 1, 6.25 μg/ml) was 7.210 fold, the “% 59-0008 Response” value (BMP-2 promoter; Experiment 1, 12.5 μg/ml) was 164.730% and the “Fold increase over negative control” value (BMP-2 promoter; Experiment 1, 12.5 μg/ml) was 8.293 fold. For the same compound, the “% 59-0008 Response” value (BMP-2 promoter; Experiment 1, 25 μg/ml) was 152.690%, the “Fold increase over negative control” value (BMP-2 promoter; Experiment 1, 25 μg/ml) was 7.760 fold and the “% 59-0008 Response” value (BMP-2 promoter; Experiment 1, 50 μg/ml) was 153.110%. The “Fold increase over negative control” value (BMP-2 promoter; Experiment 1, 50 μg/ml) was 7.779 fold, the “% 59-0008 Response” value (BMP-2 promoter; Experiment 1, 100 μg/ml) was 12.460% and the “Fold increase over negative control” value (BMP-2 promoter; Experiment 1, 100 μg/ml) was 1.552 fold. The “% 59-0008 Response” value (BMP-2 promoter; Experiment 1, 200 μg/ml) was −1.600%, the “Fold increase over negative control” value (BMP-2 promoter; Experiment 1, 200 μg/ml) was 0.929 fold and the “% 59-0008 Response” value (BMP-2 promoter; [3]) was 2.880%. For the same compound, the “Fold increase over negative control” value (BMP-2 promoter; [3]) was 1.1 fold, the “% 59-0008 Response” value (BMP-2 promoter; [4]) was −0.090% and the “Fold increase over negative control” value (BMP-2 promoter; [4]) was 0.9 fold. The “% 59-0008 Response” value (BMP-2 promoter; [5]) was 0.960%, the “Fold increase over negative control” value (BMP-2 promoter; [5]) was 1.0 fold and the “% 59-0008 Response” value (BMP-2 promoter; [6]) was 2.370%. The “Fold increase over negative control” value (BMP-2 promoter; [6]) was 1.1 fold, the “% 59-0008 Response” value (BMP-2 promoter; [7]) was 9.780% and the “Fold increase over negative control” value (BMP-2 promoter; [7]) was 1.6 fold. For the same compound, the “% 59-0008 Response” value (BMP-2 promoter; [8]) was 10.970%, the “Fold increase over negative control” value (BMP-2 promoter; [8]) was 1.7 fold and the “% 59-0008 Response” value (BMP-2 promoter; [9]) was 36.210%. The “Fold increase over negative control” value (BMP-2 promoter; [9]) was 3.4 fold, the “% 59-0008 Response” value (BMP-2 promoter; [10]) was 66.010% and the “Fold increase over negative control” value (BMP-2 promoter; [10]) was 5.3 fold. For the same compound, the “% 59-0008 Response” value (BMP-2 promoter; [11]) was 71.630%, the “Fold increase over negative control” value (BMP-2 promoter; [11]) was 5.7 fold and the “% 59-0008 Response” value (BMP-2 promoter; [12]) was 97.420%. For the same compound, the “Fold increase over negative control” value (BMP-2 promoter; [12]) was 7.4 fold, the “% 59-0008 Response” value (BMP-2 promoter; Experiment 2, 100 μM, 39 μg/ml) was 88.860% and the “Fold increase over negative control” value (BMP-2 promoter; Experiment 2, 100 μM, 39 μg/ml) was 6.9 fold. The “dose-dependent stimulatory effect in control assays” value [2] was “not in control assays” and the “inhibition of bone resorption in murine calvariae in vitro” value (murine calvariae) was “inhibits bone resorption”.
